According to patent US20250292907A1, “SYSTEMS AND METHODS FOR PERFORMING GAIT AND SPEECH ASSESSMENT ASSOCIATED WITH A DISEASE STATE” (Regeneron Pharmaceuticals, Inc., priority 2024, published 2025):

What was measured:
[1] = tested on: subjects with Parkinson's Disease (PD); assay: Levodopa challenge test: MDS-UPDRS Part III motor examination in OFF state vs ON state; type: in vivo, human; conditions: ON minus OFF, mean (SD)
Method: To participate in the study, participants were required to meet several inclusion criteria. First, they needed a clinical diagnosis of PD confirmed by a treating movement disorders neurologist. Participants had to be between the ages of 40 and 70. […] Participants had to be willing to undergo a levodopa challenge test, which involves coming to an assessment site for evaluation in the morning after not taking levodopa since the night before (e.g., at least 12 hours). They would then take levodopa at the site, wait for it to take effect (achieving the “ON” state), and repeat the motor evaluation. Additionally, participants needed to be ambulatory in the “OFF” state, meaning they could walk safely without a walking aid on a flat surface at the start of the levodopa challenge test. […]
At step 305, system 100 may receive data from subjects that were assessed in an OFF-state. […]
In some aspects, the site investigator, who is a movement disorders specialist, was tasked with performing the MDS-UPDRS Part III motor examination. […] Specific tasks, including toe tapping and leg agility, were performed using the production device while wearing the wearable insole tests device to enable a quantitative analysis of these movements.
At step 310, system 100 may receive data from the subjects that were assessed in the ON-state. […]

[2] = tested on: subjects with Parkinson's Disease (PD); assay: Speech assessment with digital mobile speech-based platform in OFF vs ON medication state; type: in vivo, human; conditions: before vs after levodopa treatment, FIG. 103
Source text: Additionally, subjects were also tasked with performing voice and speech assessments using the digital mobile speech-based platform. These speech and language tasks were designed to evaluate different aspects of verbal ability and cognitive function in participants. In an aspect, these tasks were organized to be conducted in a quiet environment to ensure accurate measurement of speech parameters. In a picture description task, participants are shown a static image depicting an event and asked to describe it in their own words. This task serves as a proxy for spontaneous discourse, providing insights into natural language use. […] In a paragraph reading task, participants were required to read one of three standard paragraphs designed to include all English language phonemes and an equal number of details and information units. This task evaluates reading fluency and pronunciation. […] During this task, gait parameters were measured simultaneously using the wearable insoles test device and the production device. […] This involved repeating the same set of voice-related activities performed in the OFF state, including paragraph reading, picture description, object naming, rapid syllable repetition, and sustained phonation. Conducting these tasks in a quiet environment ensured that the speech parameters were accurately measured without external distractions. […]

For `N[C@@H](Cc1ccc(O)c(O)c1)C(=O)O` [levodopa], the “mean difference in the MDS-UPDRS III between the ON and OFF state” value ([1]; all subjects) was -19.1 (SD=10), the “mean difference in the LE subscore between the ON and OFF state” value ([1]; lower extremity subscore of MDS-UPDRS III) was −5.7 (SD=4) and the “change in average word duration between medication states” value [2] was “prevalent trend of decreasing word duration”.
